This note sets out measurements from ChEMBL document CHEMBL4602688, “Bromopyrrole Alkaloids of the Sponge Agelas oroides Collected Near the Israeli Mediterranean Coastline” (J Nat Prod, 2020).

The term IC50 denotes the point on the concentration scale where inhibition reaches its midpoint.

Molecules are shown by their SMILES.

Assay type in all cases: functional, organism-based
In one assay the test system is Pseudomonas aeruginosa. In words: Antibiofilm activity against Pseudomonas aeruginosa PAO1 assessed as inhibition of biofilm formation incubated for 24 hrs by crystal violet staining based assay. The note with it: PAO1, 24 h.
Assay [1] relates to Pseudomonas sp. Nature of the assay: Growth inhibition of Pseudomonas sp. isolate ISP2_A10pp after 24 hrs.
For assay [2], the system named is Kocuria. Nature of the assay: Growth inhibition of Kocuria isolate Eys10 after 24 hrs. The note with it: isolate Eys10, 24 h.
Assay [3] relates to Pseudomonas sp. Nature of the assay: Antibiofilm activity against Pseudomonas sp. isolate ISP2_Ab assessed as inhibition of biofilm formation incubated for 24 hrs by crystal violet staining based assay.
In another assay the test system is Sporosarcina sp. NB90. In words: Growth inhibition of Sporosarcina sp. NB90 after 24 hrs. The note with it: Sporosarcina sp. NB90, 24 h.
In assay [4] the test system is Pseudomonas sp. Nature of the assay: Growth inhibition of Pseudomonas sp. isolate ISP2_Ab after 24 hrs.
Assay [5] relates to Pseudomonas sp. In words: Antibiofilm activity against Pseudomonas sp. isolate ISP2_A10pp assessed as inhibition of biofilm formation incubated for 24 hrs by crystal violet staining based assay.
Assay [6] relates to Pseudomonas sp. NB86. Nature of the assay: Growth inhibition of Pseudomonas sp. NB86 after 24 hrs. The note with it: Pseudomonas sp. NB86, 24 h.
Assay [7] has as its system Lysinibacillus. In words: Growth inhibition of Lysinibacillus isolate Eys09 after 24 hrs. The note with it: isolate Eys09, 24 h.
Assay [8] deals with Pseudomonas sp. NB86. Nature of the assay: Antibiofilm activity against Pseudomonas sp. NB86 assessed as inhibition of biofilm formation incubated for 24 hrs by crystal violet staining based assay. The note with it: Pseudomonas sp. NB86, 24 h.
The subject of assay [9] is Lysinibacillus. Nature of the assay: Antibiofilm activity against Lysinibacillus isolate Eys09 assessed as inhibition of biofilm formation incubated for 24 hrs by crystal violet staining based assay. The note with it: isolate Eys09, 24 h.
The test system of assay [10] is Pseudomonas sp. In words: Growth inhibition of Pseudomonas sp. isolate ISP2_16 after 24 hrs. The note with it: isolate ISP2_16, 24 h.
Assay [11] concerns Pseudomonas sp. Nature of the assay: Antibiofilm activity against Pseudomonas sp. isolate ISP2_16 assessed as inhibition of biofilm formation incubated for 24 hrs by crystal violet staining based assay. The note with it: isolate ISP2_16, 24 h.
The test system of assay [12] is Kocuria. In words: Antibiofilm activity against Kocuria isolate Eys10 assessed as inhibition of biofilm formation incubated for 24 hrs by crystal violet staining based assay. The note with it: isolate Eys10, 24 h.
A further assay deals with Bacillus sp. Nature of the assay: Growth inhibition of Bacillus sp. isolate ISP2_A_B after 24 hrs. The note with it: Bacillus sp. (in: firmicutes).

Regarding `Nc1nc2c([nH]1)c1c(c3[nH]c(N)nc32)[C@H](CNC(=O)c2cc(Br)c(Br)[nH]2)[C@H]1CNC(=O)c1cc(Br)c(Br)[nH]1` [BENZOSCEPTRIN C], the IC50 in the assay on Pseudomonas aeruginosa came out at 10 µM.

For `Nc1ncc(/C=C/CNC(=O)c2cc(Br)c(Br)[nH]2)[nH]1` [OROIDIN], the IC50 with Pseudomonas sp. [1] came out at 150 µM; with Kocuria [2], 51 µM; in the assay with Pseudomonas sp. [3], 3.9 µM; in the assay with Pseudomonas aeruginosa it was 5.1 µM; in the assay on Sporosarcina sp. NB90, 31 µM; in the assay on Pseudomonas sp. [4], 310 µM. In addition, the IC50 is 10 µM in the assay with Pseudomonas sp. [5]; 330 µM in the assay on Pseudomonas sp. NB86 [6]; 77 µM in the assay with Lysinibacillus [7]; 57 µM in the assay with Pseudomonas sp. NB86 [8]; 7.7 µM in the assay with Lysinibacillus [9]; 170 µM in the assay with Pseudomonas sp. [10]. Besides, the values for the half-maximal inhibitory concentration (IC50) in the assay on Pseudomonas sp. [11], with Kocuria [12] and in the assay with Bacillus sp. were 39 µM, 10 µM and 39 µM, respectively.

Turning to `NC(=O)c1cc(Br)c(Br)[nH]1`, the IC50 in the assay with Pseudomonas aeruginosa was determined as 15 µM.
